Experimental data reported in patent US8686115B2, “Compositions and methods for quantitatively monitoring lipids” (The Board of Trustees of the University of Illinois, priority 2009, dated 2014).
Changes are numbered by the printed parent chain.

Experiments:
[1] = biological target: T1, DAN-eENTH: epsin 1 ENTH domain variant M10C/C96A/S4W, SEQ ID NO: 2, labeled with DAN at C10 (Homo sapiens, UniProt Q9Y6I3, C96A/M10C/S4W); assay: Ratiometric (FB/FG) two-photon microscopy of DAN-eENTH binding to PtdIns(4,5)P2 in GUVs; settings: FB/FG versus [PtdIns(4,5)P2]; POPC/POPS/PtdIns(4,5)P2 (80-x:20:x) GUVs; 37° C.; read-out: Kd for PtdIns(4,5)P2 (FB/FG ratiometric analysis)
T1 construct: The Epsin1 ENTH domain (1-158 amino acids) was subcloned; GST (C, cleaved yes); made in house; host or cells: E. coli BL21 RIL codon plus
T1 sequence (Q9Y6I3 1-158 S4W/M10C/C96A): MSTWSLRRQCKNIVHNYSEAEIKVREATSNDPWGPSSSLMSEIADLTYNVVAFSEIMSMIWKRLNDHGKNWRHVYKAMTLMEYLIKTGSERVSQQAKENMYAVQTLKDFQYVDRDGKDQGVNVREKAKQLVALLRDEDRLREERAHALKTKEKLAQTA
Description: The background correction for FB/FG values was unnecessary because FB=0 in the absence of PtdIns(4,5)P2. […] The theoretic curve was then constructed using these parameters.
To calibrate the fluorescence microscope and the DAN-eENTH sensor for cellular PtdIns(4,5)P2 quantification, we then determined by photon counting F values in the blue channel (FB; observed with a 436±10 band pass filter) and the green channel (FG; observed with a 525±25 band pass filter) when DAN-eENTH was added to the solution of giant unilamellar vesicles (GUV) with the composition of POPC/POPS/PtdIns(4,5)P2 (80-x:20:x with x=0-3). […] The resulting FB versus the surface concentration of PtdIns(4,5)P2 ([PtdIns(4,5)P2]s; see Methods for calculation) (FIG. 2C) or (FB/FG) versus [PtdIns(4,5)P2]s (FIG. 2d) calibration curve was used for ensuing PtdIns(4,5)P2 quantification in GUV and in mammalian cells. With respect to FIG. 5, the bar indicates 10 μm and the radius of this GUV is measured as […]. […]
In vitro calibration of our DAN-eENTH sensor was performed using GUVs composed of POPC/POPS/PtdIns(4,5)P2 (80-x:20:x) (x=0-3 mol %). […] These GUV were mixed with DAN-eENTH in the concentration range of 0-500 nM and spatiotemporally resolved fluorescence measurements were carried out at 37° C. using the custom-built multi-photon, multi-channel microscope that was described previously 13. […]

[2] = biological target: T1, DAN-eENTH: epsin 1 ENTH domain variant M10C/C96A/S4W, SEQ ID NO: 2, labeled with DAN at C10; assay: Spectrofluorometry of DAN-eENTH binding to PtdIns(4,5)P2-containing LUVs
Description: To check the feasibility of PtdIns(4,5)P2 quantification using our sensor, the change in fluorescence emission of DAN-eENTH upon membrane binding was measured by spectrofluorometry.
The theoretic curve was then constructed using these parameters.
Hitachi F-4500 spectrofluorometer was used for all cuvette-based fluorescence measurements. DAN-eENTH (typically 500 nM) was added to POPC/POPS/PtdIns(4,5)P2 (80-x:20:x) (x=0-3 mol %) LUV and the emission spectra of DAN were measured with excitation wavelength set at 392 nm. The same measurements were repeated with LUVs made of different phosphoinositides, e.g., POPC/POPS/PtdIns(3,4,5)P3 (77:20:3).

[3] = biological target: T2, DAN-eENTH (epsin 1 ENTH domain variant M10C/C96A/S4W, SEQ ID NO: 2, DAN labeled) mutant L6A/R7A/R8A (Homo sapiens, UniProt Q9Y6I3, C96A/L6A/M10C/R7A/R8A/S4W); assay: SPR binding of DAN-eENTH-L6A/R7A/R8A to phosphoinositide-containing LUVs; settings: see Table 1
T2 construct: The Epsin1 ENTH domain (1-158 amino acids) was subcloned; GST (C, cleaved yes); made in house; host or cells: E. coli BL21 RIL codon plus
T2 sequence (Q9Y6I3 with tags, fused parts or gaps C96A): T1 sequence (Q9Y6I3 1-158 S4W/M10C/C96A) with L6A, R7A, R8A

Kd [1]: 44 ± 6 nM
Kd for PtdIns(4,5)P2 (F450/F520 ratiometric analysis) ([2]; F450/F520 versus [PtdIns(4,5)P2], LUVs): 1.2+/−0.2 mol %
Kd for PtdIns(4,5)P2 (F450 analysis) ([2]; F450 versus [PtdIns(4,5)P2], 500 nM DAN-eENTH, LUVs): 1.2+/−0.2 mol %
Kd ([2]; F450 versus [PtdIns(4,5)P2], assumes only half of total lipids available to the sensor, read-out: Kd for PtdIns(4,5)P2 (F450 analysis, converted)): 60 nM
PtdIns(4,5)P2 affinity [3]: devoid of PtdIns(4,5)P2 affinity
SMILES: CCCCCCCCCCCCCCCC(=O)OC[C@H](COP(=O)(O)O[C@@H]1[C@H](O)[C@H](O)[C@@H](OP(=O)(O)O)[C@H](OP(=O)(O)O)[C@H]1O)OC(=O)CCCCCCCCCCCCCCC [PtdIns(4,5)P2, phosphatidylinositol-4,5-bisphosphate]
